Source: ChEMBL document CHEMBL2396625 (Bioorg Med Chem Lett, 2013)
Activity calls are given as the source filed them. The rule behind the calls is not given here.

Legend:
ASPC1 = assay: Antimigratory activity against human AsPC1 cells overexpressing PRL3 at 10 to 20 uM after 20 hrs by crystal violet staining-based light microscopic analysis; assay type: functional, cell-based
[1] = molecular target: T1, Receptor-type tyrosine-protein phosphatase C (Homo sapiens) (UniProt P08575); assay: Inhibition of CD45 (unknown origin) using DiFMUP as substrate at 5 uM relative to control
T1 sequence (whole entry): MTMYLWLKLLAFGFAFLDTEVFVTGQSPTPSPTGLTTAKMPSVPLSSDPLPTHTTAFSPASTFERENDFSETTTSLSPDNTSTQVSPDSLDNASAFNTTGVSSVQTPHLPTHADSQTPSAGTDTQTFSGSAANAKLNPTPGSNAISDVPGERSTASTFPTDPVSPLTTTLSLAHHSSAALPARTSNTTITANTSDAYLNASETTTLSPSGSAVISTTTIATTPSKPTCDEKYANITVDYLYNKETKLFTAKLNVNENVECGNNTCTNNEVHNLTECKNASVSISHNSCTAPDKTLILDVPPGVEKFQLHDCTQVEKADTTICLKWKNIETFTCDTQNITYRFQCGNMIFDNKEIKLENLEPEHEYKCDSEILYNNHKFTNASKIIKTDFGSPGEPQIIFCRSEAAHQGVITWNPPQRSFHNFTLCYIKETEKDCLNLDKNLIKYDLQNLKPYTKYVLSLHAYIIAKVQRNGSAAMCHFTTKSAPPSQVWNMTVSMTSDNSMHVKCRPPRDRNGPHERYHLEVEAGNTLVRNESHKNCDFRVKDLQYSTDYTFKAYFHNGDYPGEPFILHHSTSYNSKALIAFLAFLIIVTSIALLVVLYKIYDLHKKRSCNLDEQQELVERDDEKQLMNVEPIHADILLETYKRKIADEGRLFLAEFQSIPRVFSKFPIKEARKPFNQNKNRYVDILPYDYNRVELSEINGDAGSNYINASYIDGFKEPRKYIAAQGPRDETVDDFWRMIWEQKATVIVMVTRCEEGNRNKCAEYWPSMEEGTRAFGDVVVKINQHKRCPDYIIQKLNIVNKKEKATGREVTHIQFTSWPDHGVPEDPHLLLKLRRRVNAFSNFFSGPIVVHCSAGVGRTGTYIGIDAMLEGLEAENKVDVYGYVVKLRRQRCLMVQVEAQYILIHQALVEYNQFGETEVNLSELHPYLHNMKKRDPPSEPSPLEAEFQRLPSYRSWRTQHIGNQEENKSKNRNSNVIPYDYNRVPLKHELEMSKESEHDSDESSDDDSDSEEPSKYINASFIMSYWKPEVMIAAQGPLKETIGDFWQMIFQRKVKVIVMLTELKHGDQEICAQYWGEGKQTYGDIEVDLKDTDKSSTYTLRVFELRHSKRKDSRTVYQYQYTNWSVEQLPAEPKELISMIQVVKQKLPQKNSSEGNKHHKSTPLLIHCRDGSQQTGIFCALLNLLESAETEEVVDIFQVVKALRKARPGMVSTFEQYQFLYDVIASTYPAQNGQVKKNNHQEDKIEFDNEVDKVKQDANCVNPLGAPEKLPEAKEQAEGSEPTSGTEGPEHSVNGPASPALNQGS

[2] = molecular target: T2, Tyrosine-protein phosphatase non-receptor type 1 (Homo sapiens) (UniProt P18031); assay: Inhibition of PTP1B (unknown origin) using DiFMUP as substrate at 5 uM relative to control
T2 sequence (whole entry): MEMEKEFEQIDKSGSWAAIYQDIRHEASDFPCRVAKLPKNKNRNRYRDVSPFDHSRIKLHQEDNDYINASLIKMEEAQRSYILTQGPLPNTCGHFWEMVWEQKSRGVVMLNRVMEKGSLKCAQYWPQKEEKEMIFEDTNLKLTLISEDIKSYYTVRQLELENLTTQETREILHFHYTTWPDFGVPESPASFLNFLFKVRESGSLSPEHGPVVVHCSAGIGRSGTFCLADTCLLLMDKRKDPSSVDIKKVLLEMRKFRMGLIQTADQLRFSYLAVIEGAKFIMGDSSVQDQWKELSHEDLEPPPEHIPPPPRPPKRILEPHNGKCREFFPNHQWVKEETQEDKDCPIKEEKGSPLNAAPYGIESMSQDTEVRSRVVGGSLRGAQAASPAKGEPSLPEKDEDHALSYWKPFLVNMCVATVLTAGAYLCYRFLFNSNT

DLD-1 [3] = assay: Antiinvasive activity against human DLD1 cells overexpressing PRL3 at 20 uM after 20 hrs by crystal violet staining-based light microscopic analysis relative to control; assay type: functional; conditions: DLD-1, 20 h
[4] = molecular target: T3, Tyrosine-protein phosphatase non-receptor type 2 (Homo sapiens) (UniProt P17706); assay: Inhibition of TCPTP (unknown origin) using DiFMUP as substrate at 5 uM relative to control
T3 sequence (whole entry): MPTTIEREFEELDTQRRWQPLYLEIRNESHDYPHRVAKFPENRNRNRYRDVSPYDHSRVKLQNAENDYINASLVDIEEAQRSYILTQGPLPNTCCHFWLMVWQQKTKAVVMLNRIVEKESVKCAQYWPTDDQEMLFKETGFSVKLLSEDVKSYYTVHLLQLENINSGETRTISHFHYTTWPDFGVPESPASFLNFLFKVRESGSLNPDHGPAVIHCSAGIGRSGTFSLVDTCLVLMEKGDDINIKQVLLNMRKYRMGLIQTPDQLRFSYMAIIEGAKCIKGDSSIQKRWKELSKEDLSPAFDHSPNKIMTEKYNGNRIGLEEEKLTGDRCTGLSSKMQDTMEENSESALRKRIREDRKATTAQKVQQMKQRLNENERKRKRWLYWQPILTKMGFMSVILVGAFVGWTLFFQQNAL

DLD-1 [5] = assay: Antimigratory activity against human DLD1 cells overexpressing PRL3 by crystal violet staining-based light microscopic analysis; assay type: functional, cell-based
DU-145 = assay: Antimigratory activity against human DU145 cells expressing low level of PRL3 at 10 to 20 uM after 20 hrs by crystal violet staining-based light microscopic analysis; assay type: functional, cell-based
DLD-1 [6] = assay: Antimigratory activity against human DLD1 cells overexpressing PRL3 at 10 uM after 20 hrs by crystal violet staining-based light microscopic analysis; assay type: functional, cell-based
DLD-1 [7] = assay: Antimigratory activity against human DLD1 cells overexpressing PRL3 at 20 uM after 20 hrs by crystal violet staining-based light microscopic analysis relative to control; assay type: functional; conditions: DLD-1, 20 h

| inhibition [1] | inhibition [2] | inhibition [4] | IC50 (DLD-1 [5]) | SMILES | Activity (ASPC1) | inhibition at 20 µM (DLD-1 [3]) | inhibition (DLD-1 [5]) | Activity (DU-145) | Activity (DLD-1 [6]) | inhibition at 20 µM (DLD-1 [7]) |
| --- | --- | --- | --- | --- | --- | --- | --- | --- | --- | --- |
| 11% | 8% | 1% | 5 µM | COc1ccccc1COc1ccccc1/C=C/C=C1\SC(=S)NC1=O | Active | > 60% | Dose-dependent effect | inactive | Active | > 90% |
| 12% | 11% | 9% | 7 µM | O=C1NC(=S)S/C1=C\c1cc(Br)ccc1OCc1ccccc1Br | Active | > 60% | Dose-dependent effect | inactive | Active | > 90% |
